Assay results from patent publication US6495525B1, “VLA-4 inhibitor: oMePUPA-V” (Biogen, Inc., priority 1998, dated 2002).
≈ marks a conversion by molar mass, not a printed value.

How the values were obtained:
[1] = Proteolytic stability, in vitro metabolism and in vivo PK studies; type: in vitro ADME; details: in vitro metabolism studies and in vivo PK studies in rat, dog and sheep
[2] = Oral availability; details: in vivo
[3] = tested on: Ascaris suum-sensitive sheep; test: Ovine model of allergic pulmonary inflammation (Ascaris suum allergen challenge); type: in vivo; details: for EAR (ΔSLR × h): 0-4 h; for LAR (ΔSLR × h): 4-8 h; for PC400 (Post/Pre): carbachol 24 h post-challenge; for early and late airway response, hyperresponsiveness to carbachol (in words): aerosol 2 h before challenge
Source text: Allergic sheep weighing between 27-50 kg were used. […] The sheep were conscious and were restrained in a modified shopping cart in the prone position with their heads immobilized. After topical anesthesia of the nasal passages with 2% lidocaine, a balloon catheter was advanced through one nostril into the lower esophagus. The animals were intubated with a cuffed endotracheal tube through the other nostril using a flexible fiberoptic bronchoscope as a guide. All protocols used in this study were approved by the Mount Sinai Medical Center Animal Research Committee, which is responsible for assuring the humane care and use of experimental animals. Pleural pressure was estimated using an esophageal balloon catheter (filled with 1 mL of air), which was positioned 5 to 10 cm from the gastroesophageal-junction. In this position, the end expiratory pleural pressure ranged between −2 to −5-cmH2O. Once the balloon was placed, it was secured so that it remained in the same position for the duration of the experiment. Lateral pressure in the trachea was measured with a sidehole catheter (inner diameter, 2.5 mm) advanced through and positioned distal to the tip of the endotracheal tube.
The tracheal and pleural pressure catheters were connected to a differential pressure transducer (MP45, Validyne, Northridge, Calif.) for the measurement of transpulmonary pressure which was defined as the difference between tracheal and pleural pressure. Airflow was measured by connecting the proximal end of the endotracheal tube to a pneumotachograph (Fleisch, Dyna Sciences, Inc., Blue Bell, Pa.). The signals of transpulmonary pressure and flow were recorded on a multichannel physiological recorder which was linked to a 80-386 DOS Personal Computer for on-line calculation of mean pulmonary flow resistance (RL) by dividing the change in transpulmonary pressure by the change in flow at mid-tidal volume (obtained by digital integration). The mean of at least five breaths, free of swallowing artifact, was used to obtain RL in cmH2O/L/sec. Immediately after the measurement of RL, thoracic gas volume (Vtg) was measured in a constant-volume body plethysmograph to obtain specific lung resistance (SRL=RL×Vtg) in L×cmH2O/L/sec.
All liquid-dose aerosols were generated using a disposable medical air-jet nebulizer (Raindrop®, Puritan Bennett, Lenexa, Kans.) that provided an aerosol with a mass median aerodynamic diameter of 3.2 μm as determined by an Andersen cascade impactor. The nebulizer was connected to a dosimeter system, consisting of a solenoid valve and a source of compressed air (20 psi). The output of the nebulizer was directed into a plastic T-piece, one end of which was connected to the inspiratory port of a piston respirator (Harvard Apparatus, S. Natick, Mass.). The solenoid valve was activated for one second at the beginning of the inspiratory cycle of the respirator. Aerosols were delivered at a tidal volume of 500 mL and a rate of 20 breaths per minute. To assess bronchial responsiveness, cumulative concentration response curves to carbachol were performed by measuring SRL immediately after inhalation of buffer and after each consecutive administration of 10 breaths of increasing concentrations of carbachol (0.25, 0.5, 1.0, 2.0 and 4.0% w/v in buffered saline). The provocation test was discontinued when SRL increased over 400% from the post-saline value or after the highest carbachol concentration had been administered. Bronchial responsiveness was assessed by determining the cumulative carbachol concentration (in breath units) that increased SRL by 400% over the post-saline value (PC400) by interpolation from the dose response curve. One breath unit (BU) was defined as one breath of a 1% w/v carbachol nebulized solution.
Doses of oMePUPA-V were dissolved in either ethanol:normal saline 1:2, ethanol:200 mM sodium phosphate 1:5 or Tris buffer. When using Tris, any required dilution was performed using normal saline. […]

[4] = Solubility; type: physicochemical
[5] = tested on: sRBC-induced DTH model in mice; test: sRBC-induced delayed type hypersensitivity, footpad swelling; type: in vivo; details: 20 mg/kg enterally
Description: Specific pathogen-free female Balb/c mice, aged 8-10 weeks, from Jackson Labs were used for all experiments. The animals were fed food and water ad libitum. Sheep red blood cells (sRBC) in Alsever's solution from the same sheep were obtained weekly from Charles River Pharm. Services (Southbridge, Mass.). The sRBC were pelleted by centrifugation at 1000 g for 10 minutes at 4° C. and any visible buffy coat removed. The cells were then washed in saline. The cell pellet was resuspended in saline and counted using a hemocytometer. The cells were diluted in phosphate buffered saline (PBS) to 2×10^8 sRBC per mL. On Day 0, mice were sensitized by a s.c. injection of 2×10^7 sRBC in 100 μL PBS. On Day 5, sRBC were prepared as above, but diluted in PBS to a final concentration of 4×10^9 sRBC per ml. Of this preparation, 25 μL was injected s.c. into the right rear footpad.
For enteral administration of compound, oMePUPA-V (Lot #2770-029) was formulated in a vehicle of 60% PEG 400 in 0.02M TRIS to a stock concentration of 5 mg/mL. […]
Swelling of unchallenged control (left) and challenged (right) rear footpads was measured using a tension caliper from Mitutoyo (Model #304-196, Dyer, Lancaster, Pa.) at 20 hours post-footpad challenge. The data are presented as the change in footpad thickness, determined by subtracting the left hind paw thickness from the right hind paw thickness. […]

[6] = 0.01 mg aerosol, EtOH:NS, 2 hours prior to allergen challenge
[7] = 0.03 mg aerosol, EtOH:NS, 2 hours prior to allergen challenge
[8] = 0.03 mg once daily for 4 days, EtOH:NS, challenge 24 h after last dose
[9] = 0.03 mg once daily for 4 days, Tris:NS, challenge 24 h after last dose
[10] = 0.10 mg aerosol, EtOH:NS, 2 hours prior to allergen challenge
[11] = 1.00 mg aerosol, EtOH:PBS, 2 hours prior to allergen challenge
[12] = 3.00 mg aerosol, EtOH:PBS, 2 hours prior to allergen challenge

For Cc1ccccc1NC(=O)Nc1ccc(CC(=O)N2CCC[C@H]2C(=O)N[C@H](C)CC(=O)O)cc1 [oMePUPA-V], the proteolytic stability [1] was “proteolytically stable”, the Oral availability [2] was <1% and the “EAR (ΔSLR × h)” value [3, 6] was 6.87 ± 0.05 ΔSLR × h. For the same compound, the “LAR (ΔSLR × h)” value [3, 6] was 5.11 ± 1.46 ΔSLR × h, the “PC400 (Post/Pre)” value [3, 6] was 0.44 ± 0.04 and the “EAR (ΔSLR × h)” value [3, 7] was 10.62 ± 3.91 ΔSLR × h. For the same compound, the “LAR (ΔSLR × h)” value [3, 7] was 3.98 ± 0.23 ΔSLR × h, the “PC400 (Post/Pre)” value [3, 7] was 0.43 ± 0.00 and the “EAR (ΔSLR × h)” value [3, 8] was 1.53 ± 0.34 ΔSLR × h. For the same compound, the “LAR (ΔSLR × h)” value [3, 8] was 0.59 ± 0.16 ΔSLR × h, the “PC400 (Post/Pre)” value [3, 8] was 1.06 ± 0.04 and the “EAR (ΔSLR × h)” value [3, 9] was 1.40 ± 0.35 ΔSLR × h. The “LAR (ΔSLR × h)” value [3, 9] was 0.02 ± 0.06 ΔSLR × h, the “PC400 (Post/Pre)” value [3, 9] was 1.04 ± 0.04 and the “protection against EAR, LAR and hyperresponsiveness (in words)” value ([3]; 0.03 mg once daily for 4 days, antigen challenge 24 h after the last dose) was “protective”. The “EAR (ΔSLR × h)” value [3, 10] was 2.54 ± 0.74 ΔSLR × h, the “LAR (ΔSLR × h)” value [3, 10] was 0.67 ± 0.17 ΔSLR × h and the “PC400 (Post/Pre)” value [3, 10] was 1.18 ± 0.11. For the same compound, the “EAR (ΔSLR × h)” value [3, 11] was 2.14 ± 0.70 ΔSLR × h, the “LAR (ΔSLR × h)” value [3, 11] was 0.27 ± 0.34 ΔSLR × h and the “PC400 (Post/Pre)” value [3, 11] was 1.05 ± 0.11. For the same compound, the “EAR (ΔSLR × h)” value [3, 12] was 2.47 ± 0.62 ΔSLR × h, the “LAR (ΔSLR × h)” value [3, 12] was 0.68 ± 0.07 ΔSLR × h and the “PC400 (Post/Pre)” value [3, 12] was 1.07 ± 0.08. The “Minimum effective dose in sheep model, repeat-dose” value ([3]; daily for 4 days, antigen challenge 24 hours after the last dose) was 1 µg/kg, the “early and late airway response, hyperresponsiveness to carbachol (in words)” value ([3]; doses of 0.01 and 0.03 mg) was “did not inhibit early or late airway response” and the “early and late airway response, hyperresponsiveness to carbachol (in words)” value ([3]; doses of 0.1, 1 and 3 mg) was “inhibited the early airway response and maximally inhibited the late airway response”. For the same compound, the “Minimum effective dose in sheep model, single dose” value ([3]; single nebulized dose 2 hours before antigen challenge) was 3 µg/kg, the “solubility in DMSO” value ([4]; DMSO) was “soluble” and the solubility ([4]; aqueous medium) was 120 µg/mL (≈ 257 µM). The “effect on footpad swelling (in words)” value [5] was “without effect”.
